According to paper PMC11557314 (Frontiers in Pharmacology, 2024):
Where no end group is shown, it is not given here.

Tests used:
hMOPr = hMOPr (Homo sapiens, UniProt P35372); assay: Competitive radio binding assay with [3H]-DAMGO on hMOPr-CHO cell membranes; settings: read-out: Ki hMOPr; [3H]-DAMGO 1 nM, 60 min 25°C; mean ± SEM
hKOPr [1] = assay: Biased factor calculation from GTPγS and PRESTO-Tango data; parameters: species or system human; settings: G-protein vs β-arrestin, DynA as reference; below 1 = β-arrestin bias
From the text: To perform biased factor analyses, we followed the step-by-step protocol described by [Nagi and Pineyro (2016)]. In short, curve fitting was used to calculate τ and Ka values for G-protein and β-arrestin pathway activation. Log(τ/Ka) ratios were subtracted by log(τ/Ka) of DynA as the reference to yield ΔLog(τ/Ka) values for each peptide. In a final step for each peptide, ΔLog (τ/Ka) values for G-protein pathway activation were subtracted from ΔLog(τ/Ka) values for β-arrestin pathway activation and vice versa to calculate ΔΔLog(τ/Ka). The biased factor is yielded by delogging ΔΔLog (τ/Ka).
To confidently identify a G-protein-biased peptide of interest, it is essential to keep in mind that the responses we collected through GTPγS and PRESTO-Tango assay are not solely determined by drug signaling properties but also by the way the cell and different assays “perceive” the generation of this response. These different “perceptions” of the pharmacological stimulus may themselves be responsible for an imbalance among signals from different pathways. To avoid this, and to be able to correctly estimate whether a peptide is indeed biased, we applied the method proposed by [Kenakin et al. (2012)], that is based on the operational method proposed by [Black and Leff (1983)]. This method takes into consideration receptor occupation by the agonist, communication of the pharmacological stimulus to the system, and the processing of the stimulus by the system that produces the response.

hKOPr [2] = target: hKOPr (Homo sapiens, UniProt P41145); assay type: binding; settings: for Ki: read-out: Ki hKOPr
hKOPr (Homo sapiens, UniProt P41145), sequence (P41145 whole entry): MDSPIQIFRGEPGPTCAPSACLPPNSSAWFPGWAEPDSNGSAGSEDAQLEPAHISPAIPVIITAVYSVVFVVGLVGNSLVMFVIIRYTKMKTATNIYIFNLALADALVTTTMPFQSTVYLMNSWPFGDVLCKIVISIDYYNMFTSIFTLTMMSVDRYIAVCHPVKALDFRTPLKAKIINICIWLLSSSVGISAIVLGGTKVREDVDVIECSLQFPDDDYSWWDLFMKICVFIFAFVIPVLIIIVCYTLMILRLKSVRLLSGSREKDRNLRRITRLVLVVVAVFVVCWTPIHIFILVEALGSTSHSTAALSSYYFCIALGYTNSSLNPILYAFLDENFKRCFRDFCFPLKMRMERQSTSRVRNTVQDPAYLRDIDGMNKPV

hMOPr, sequence (P35372 whole entry): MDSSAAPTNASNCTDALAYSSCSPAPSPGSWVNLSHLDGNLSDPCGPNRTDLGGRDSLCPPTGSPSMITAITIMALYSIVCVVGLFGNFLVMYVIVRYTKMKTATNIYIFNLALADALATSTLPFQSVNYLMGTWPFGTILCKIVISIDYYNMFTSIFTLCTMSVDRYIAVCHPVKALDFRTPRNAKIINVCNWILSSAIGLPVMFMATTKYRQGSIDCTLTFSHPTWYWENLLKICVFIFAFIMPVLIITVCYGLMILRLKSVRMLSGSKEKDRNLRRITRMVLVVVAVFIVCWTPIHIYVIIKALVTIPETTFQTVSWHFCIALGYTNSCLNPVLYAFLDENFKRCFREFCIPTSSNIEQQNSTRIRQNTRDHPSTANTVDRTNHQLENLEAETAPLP

Sequence	Ki (hMOPr) [nM]	biased factor at hKOPr (hKOPr [1])	Selectivity DOPr/KOPr (hKOPr [2])	Selectivity MOPr/KOPr (hKOPr [2])	Ki (hKOPr [2]) [nM]
YGAFLRRAFKVVT [DynB_G3A/Q8A]	86.1 ± 7	0.6 ± 0.2	778	161	0.54
YGGFSRRQFKVVT [DynB_L5S]	18.6 ± 1.3	0.7 ± 0.2	4,153	135	0.14
